Test results: patent US7504400B2, “MTP inhibiting aryl piperydines or piperazines substituted with 5-membered heterocycles” (Janssen Pharmaceutica N.V., priority 2004, dated 2009)

Tested on: Secretion of ApoB
Assay: Quantification of the secretion of ApoB in HepG2 cells
Type: cell-based
Details: Homo sapiens, HepG2, 24 h, 24 hours of incubation with test compound, immunoprecipitation of apoB from medium, read-out: pIC50 value (=-log IC50 value), secretion of ApoB (converted)
In short: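 At 70% confluency, HepG2 cells in MEM with 10% FCS received compound or DMSO carrier (0.4% final) for 24 h. Secreted apoB in cleared medium immunoprecipitated with sheep anti-apoB then rabbit anti-sheep antibody (24 h each, 8° C); pellet radioactivity counted by liquid scintillation; IC50 expressed as pIC50.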

Row | IC50 [nM] | SMILES
1 | 31.6 to 316 | CCOC(=O)[C@H](c1ccccc1)N1CCN(c2ccc(-n3cnn([C@@H](C)c4ccccc4)c3=O)cc2)CC1 (stereo in doubt) [Compound 304]
2 | 316 to 3160 | C=CCNC(=O)C(c1ccccc1)N1CCN(c2ccc(-n3cnn(C(C)C)c3=O)cn2)CC1 (centres unmarked) [Compound 49]
3 | 316 to 3160 | C=CCn1ncn(-c2ccc(N3CCC(C(C(=O)Nc4ccccc4)c4ccccc4)CC3)cc2)c1=O (centres unmarked) [Compound 52]
4 | 316 to 3160 | CCCNC(=O)C(c1ccccc1)N1CCN(c2ccc(-n3nc(-c4ccccc4)n(C(C)C)c3=O)cc2)CC1 (centres unmarked) [Compound 30]
5 | 316 to 3160 | CCOC(=O)C(c1ccccc1)C1CCN(c2ccc(-n3ccn([C@@H](C)c4ccc(Br)cc4)c3=O)cc2)CC1 (some centres unmarked) [Compound 250]
6 | 31.6 to 316 | COC(=O)C(c1ccccc1Cl)N1CCC(c2ccc(-n3cnn(C(C)C)c3=O)cc2)CC1 (centres unmarked) [Compound 319]
7 | 31.6 to 316 | CCOC(=O)c1cc(NC(=O)C(c2ccccc2)C2CCN(c3ccc(-n4cnn(C(C)C)c4=O)cc3)CC2)ccc1C (centres unmarked) [Compound 370]
8 | 316 to 3160 | CCNC(=O)C(c1ccccc1)N1CCN(c2ccc(-n3c(-c4ccccc4)nn(C(C)C)c3=O)cc2)CC1 (centres unmarked) [Compound 31]
9 | 31.6 to 316 | CCOC(=O)C(c1ccccc1)C1CCN(c2ccc(-n3ccn([C@@H](C)C4CCCCC4)c3=O)cc2)CC1 (some centres unmarked) [Compound 261]
10 | 316 to 3160 | COCCNC(=O)C(c1ccccc1)N1CCN(c2ccc(-n3cnn(C(C)C)c3=O)cc2)CC1 (centres unmarked) [Compound 131]
11 | 31.6 to 316 | COc1ccc(CCNC(=O)C(c2ccccc2)N2CCN(c3ccc(-n4cnn(C(C)C)c4=O)cc3)CC2)cc1OC (centres unmarked) [Compound 82]
12 | 316 to 3160 | CCCNC(=O)C(c1ccccc1)C1CCN(c2ccc(-n3cnn(CC)c3=O)cc2)CC1 (centres unmarked) [Compound 148]
13 | 316 to 3160 | CC(C)n1ncn(-c2ccc(N3CCN(C(C(=O)N(C)C)c4ccccc4)CC3)cc2)c1=O (centres unmarked) [Compound 137]
14 | 31.6 to 316 | COC(=O)c1ccc(CNC(=O)C(c2ccccc2)N2CCC(c3ccc(-n4cnn(C(C)C)c4=O)cc3)CC2)cc1 (centres unmarked) [Compound 295]
15 | < 31.6 | Cc1cc(N2CCN(C(C(=O)Nc3ccc4c(c3)CCC4)c3ccccc3)CC2)ccc1-n1ccn(C(C)C)c1=O (centres unmarked) [Compound 214]
16 | 316 to 3160 | CCOC(=O)C(CN1CCN(c2ccc(-n3cnn(C(C)C)c3=O)cc2)CC1)c1ccccc1 (centres unmarked) [Compound 138]
17 | 316 to 3160 | CC(C)n1ncn(-c2ccc(N3CCN(C(C(=O)Nc4cccnc4)c4ccccc4)CC3)cc2)c1=O (centres unmarked) [Compound 16]
18 | 316 to 3160 | CCOC(=O)C(c1ccccc1)C1CCN(c2ccc(-n3ccn([C@@H](C)c4ccccc4)c3=O)cc2)CC1 (some centres unmarked) [Compound 248]
19 | 316 to 3160 | CCOC(=O)[C@@H](C)NC(=O)CC1CCN(c2ccc(-n3cnn(C(C)c4ccccc4)c3=O)cc2)CC1 (some centres unmarked) [Compound 391]
20 | 316 to 3160 | COC(=O)C(c1ccc(C)cc1)N1CCC(c2ccc(-n3cnn(C(C)C)c3=O)cc2)CC1 (centres unmarked) [Compound 324]
21 | 316 to 3160 | CC(C)n1ncn(-c2ccc(N3CCN(C(C(=O)NCCNc4cccc5ccccc45)c4ccccc4)CC3)cc2)c1=O (centres unmarked) [Compound 67]
22 | 31.6 to 316 | O=C(NCc1ccccc1)C(c1ccccc1)C1CCN(c2ccc(-n3cnn(CC4CC4)c3=O)cc2)CC1 (centres unmarked) [Compound 182]
23 | 316 to 3160 | CCNC(=O)C(c1ccccc1)N1CCN(c2ccc(-n3c(-c4ccccc4)nn(-c4ccccc4)c3=O)cc2)CC1 (centres unmarked) [Compound 28]
24 | 31.6 to 316 | COc1ccc(NC(=O)C(c2ccccc2)N2CCN(c3ccc(-n4cnn(C(C)C)c4=O)cc3)CC2)c(OC)c1 (centres unmarked) [Compound 184]
25 | 31.6 to 316 | CCOC(=O)C(c1ccccc1)N1CCC(c2ccc(-n3ccn([C@H](C)c4ccc(C)cc4)c3=O)cc2)CC1 (some centres unmarked) [Compound 233]

Row | IC50 [nM] | SMILES
26 | 316 to 3160 | CC(C)n1cnn(-c2ccc(N3CCN(C(C(=O)NCC(F)(F)F)c4ccccc4)CC3)cc2)c1=O (centres unmarked) [Compound 122]
27 | 31.6 to 316 | CCCCCNC(=O)C(c1ccccc1)N1CCN(c2ccc(-n3cnn(C(C)C)c3=O)cn2)CC1 (centres unmarked) [Compound 44]
28 | 31.6 to 316 | CNC(=O)C(c1ccccc1)N1CCC(c2ccc(-n3cnn(C(C)C)c3=O)cc2)CC1 (centres unmarked) [Compound 142]
29 | 31.6 to 316 | CC(C)n1ncn(-c2ccc(N3CCN(C(C(=O)Nc4ccc5c(c4)OCO5)c4ccccc4)CC3)cc2)c1=O (centres unmarked) [Compound 200]
30 | 316 to 3160 | COc1ccc(CNC(=O)C(c2ccccc2)N2CCN(c3ccc(-n4cnn(C(C)C)c4=O)cc3)CC2)cc1 (centres unmarked) [Compound 71]
31 | 316 to 3160 | O=C(NCc1ccccc1)C(c1ccccc1)N1CCN(c2ccc(-n3nc(-c4ccccc4)n(-c4ccccc4)c3=O)cc2)CC1 (centres unmarked) [Compound 25]
32 | 316 to 3160 | CCOC(=O)[C@@H](c1ccccc1)N1CCN(c2ccc(-n3ccn([C@@H](C)c4ccccc4F)c3=O)cc2)CC1 (stereo in doubt) [Compound 275]
33 | 31.6 to 316 | Cc1cccc(NC(=O)C(c2ccccc2)N2CCN(c3ccc(-n4cnn(C(C)C)c4=O)cc3)CC2)c1 (centres unmarked) [Compound 57]
34 | 31.6 to 316 | CCOC(=O)c1ccc(CNC(=O)CC2CCN(c3ccc(-n4cnn(C(C)C)c4=O)cc3)CC2)cc1C [Compound 378]
35 | 316 to 3160 | CCOC(=O)C(c1ccccc1)C1CCN(c2ccc(-n3ccn([C@@H](C)c4cccc(OC)c4)c3=O)cc2)CC1 (some centres unmarked) [Compound 258]
36 | 316 to 3160 | CC(C)n1ncn(-c2ccc(N3CCN(C(C(=O)NCc4ccccn4)c4ccccc4)CC3)nc2)c1=O (centres unmarked) [Compound 45]
37 | 31.6 to 316 | CCOC(=O)c1ccc(CNC(=O)CC2CCN(c3ccc(-n4cnn(C(C)c5ccccc5)c4=O)cc3)CC2)cc1C (centres unmarked) [Compound 377]
38 | 316 to 3160 | CC(C)n1nc(-c2ccccc2)n(-c2ccc(N3CCN(C(C(=O)NCc4ccccc4)c4ccccc4)CC3)cc2)c1=O (centres unmarked) [Compound 33]
39 | 316 to 3160 | Cc1cccc(NC(=O)C(c2ccccc2)N2CCN(c3ccc(-n4cnn(C(C)C)c4=O)cc3)CC2)n1 (centres unmarked) [Compound 12]
40 | 31.6 to 316 | CC(C)n1ncn(-c2ccc(N3CCN(C(C(=O)Nc4ccc(F)cc4)c4ccccc4)CC3)cc2)c1=O (centres unmarked) [Compound 186]
41 | 31.6 to 316 | Cc1cnc(NC(=O)C(c2ccccc2)N2CCN(c3ccc(-n4cnn(C(C)C)c4=O)cc3)CC2)s1 (centres unmarked) [Compound 125]
42 | 31.6 to 316 | CC(C)n1ncn(-c2ccc(N3CCN(C(C(=O)NC4Cc5ccccc5C4)c4ccccc4)CC3)cc2)c1=O (centres unmarked) [Compound 69]
43 | 316 to 3160 | CCOC(=O)C(c1ccccc1)N1CCC(c2ccc(-n3ccn([C@@H](C)c4ccc(Br)cc4)c3=O)cc2)CC1 (some centres unmarked) [Compound 230]
44 | 316 to 3160 | CCCNC(=O)C(c1ccccc1)(c1ccccc1)N1CCN(c2ccc(-n3cnn(C(C)C)c3=O)cc2)CC1 [Compound 134]
45 | 31.6 to 316 | CCOC(=O)[C@H](c1ccccc1)N1CCN(c2ccc(-n3ccn(C(C)c4ccc(F)c(F)c4)c3=O)cc2)CC1 (stereo in doubt) [Compound 341]
46 | 31.6 to 316 | CCC(C)n1ncn(-c2ccc(N3CCN(C(C(=O)NCC(F)(F)F)c4ccccc4)CC3)cc2)c1=O (centres unmarked) [Compound 178]
47 | 31.6 to 316 | CCOC(=O)[C@H](c1ccccc1)N1CCN(c2ccc(-n3ccn(C(C)c4cccc(F)c4F)c3=O)cc2)CC1 (stereo in doubt) [Compound 338]
48 | 31.6 to 316 | CCCN(CCC)C(=O)C(CCN1CCN(c2ccc(-n3ncn(C(C)C)c3=O)cc2)CC1)c1ccccc1 (centres unmarked) [Compound 3]
49 | 31.6 to 316 | CCC(C)n1ncn(-c2ccc(N3CCN(C(C(=O)Nc4ccccc4)c4ccccc4)CC3)cc2)c1=O (centres unmarked) [Compound 23]
50 | 31.6 to 316 | CCOC(=O)c1ccccc1NC(=O)C(c1ccccc1)N1CCN(c2ccc(-n3cnn(C(C)C)c3=O)cc2)CC1 (centres unmarked) [Compound 206]
